Source: patent publication US5466716A, “Liposomal trimethylsphingosine” (The Biomembrane Institute, priority 1994, dated 1995)
Entries after “also recorded” stand apart in the source; their conditions may differ.

Tests used:
MKN-74 cells = assay: comparative effect of reagents on MKN-74 tumor cell growth/differentiation; type: cell-based, human; conditions: MKN-74, FIG. 3, compared with DMS, SPN, cAMP derivatives, HMBA
From the text: FIG. 3 depicts the comparative effect of various reagents on tumor cell differentiation. MKN-74 cells were exposed to N,N,N-trimethylsphingosine (open squares), N,N-dimethylsphingosine (open circles), 8-chloro-cyclic AMP (open triangles), dibutyryl cyclic AMP (solid triangles), sphingosine (solid circles) and hexamethylenebisacetamide (solid squares).
(§1) An in vitro assay relying on tritiated thymidine incorporation can be used to ascertain the effect of various compounds on cell proliferation. Briefly, tumor cells are seeded in flat bottom 96 well plates (Corning, N.Y.) at a concentration of 2×10^4 cells per well. The cells are cultured for 2 days in DMEM containing various concentrations of sphingoid, which is added as a PBS solution. The medium then is supplemented with tritiated thymidine at a concentration of 0.5 μCi per well. Following a six hour incubation the cells are collected using the PHD Cell Harvester (Cambridge Technology, Cambridge, Mass.) and amounts of incorporated radioactivity are determined after adding a suitable cell lysing agent and scintillation cocktail, such as ScintiVerse BD (Fisher Scientific, Fairlawn, Calif.) which performs both functions.
MKN-74 cells were exposed to cAMP and derivatives thereof and to HMBA, which are known to inhibit tumor cell growth by differentiation induction.

BL6 melanoma cells = assay: melanoma BL6 cell proliferation (thymidine incorporation); type: cell-based; conditions: BL6, FIG. 5A
From the text: FIGS. 5A and 5B depict the effect of N,N,N-trimethylsphingosine (open circles), N,N-dimethylsphingosine (solid circles) and sphingosine (open squares) on two melanoma cell lines, BL6, a highly malignant cell line (in FIG. 5A) and F1, a cell line of low malignancy, (in FIG. 5B). Cell proliferation was evidenced by tritiated thymidine incorporation into DNA.
as §1
Certain cancer cells show a higher metastatic potential and invasive capability than others. For example the BL6 and F10 melanoma cell lines are highly metastatic and invasive. […]

40 kD platelet protein = assay: thrombin-induced phosphorylation of 40 kD platelet protein; type: cell-based, human; conditions: thrombin stimulation, FIG. 9
Experimental: FIG. 9 depicts the inhibition of γ-thrombin-induced phosphorylation of 40 kD protein of human platelets by sphingosine and TMS. Human platelets (3×10^5 /μl) were prelabeled with ^32 p-phosphoric acid (0.2 mCi/ml) in Tyrode's buffer containing 22 mM trisodium citrate, 1 mg/ml glucose and 3.5 mg/ml bovine serum albumin (pH 6.5) for 75 minutes at 37° C. After centrifugation (600× g, 10 minutes), the platelets were resuspended in Tyrode's buffer (pH 7.2), aliquoted in plastic tubes and pre-incubated at 37° C. for 5 minutes with various concentrations of sphingosine and its derivatives (added as 50% ethanol solutions with a final ethanol concentration of 0.5%). Platelets then were stimulated with thrombin […]. The reactions were stopped after 30 seconds by the addition of 5× sample buffer, the samples were boiled and loaded onto 10% SDS-polyacrylamide gels. The proteins were separated electrophotectically. Lane 1-control without stimulation by thrombin; Lane 2-stimulation by 1 μU/ml of γ-thrombin; Lane 3-stimulated by thrombin but added with 1 μM TMS; Lane 4-stimulated by thrombin but added with 10 μM TMS; Lane 5-stimulated by thrombin but added with 20 μM TMS; Lane 6-stimulated by thrombin but added with 30 μM TMS; Lane 7-stimulated by thrombin but added with 20 μM sphingosine; Lane 8-stimulated by thrombin but included addition of 20 μM N,N-dimethylsphingosine.

neutrophils = assay: neutrophil O2 consumption (Clark-type electrode); type: cell-based, human
Experimental: FIG. 14 depicts the effect of various reagents on neutrophil O2 consumption. The Clark-type electrode and oxygen monitor were calibrated using air-saturated water according to the manufacturer's recommendations (Y.S.I. Inc., Yellow Springs, Ohio. A reading of 100% was considered to be equal to the concentration of oxygen in air-saturated water.
O2 consumption was measured using a Clark-type electrode with a Y.S.I. model P300 biological oxygen monitor and a micro oxygen chamber assembly (Y.S.I. Inc., Yellow Springs, Ohio). Assays were performed at 37° C. with ≈6×10^6 neutrophils per ml in a total volume of 600 μl. The cell suspensions, in Eppendorf test tubes, were warmed at 37° C. for several minutes before being applied to the microchamber. Effectors were injected carefully using a Hamilton syringe and stirred well with a microstirrer at a speed of ≈240 rpm. The cell suspensions were pre-incubated with effectors for 5 min prior to addition of PMA to a final concentration of 1.0 μM.

CCCCCCCCCCCCC/C=C/[C@@H](O)[C@H](CO)[N+](C)(C)C [TMS, N,N,N-trimethylsphingosine]
inhibition of tumor cell growth (MKN-74 cells): most effective inhibitor of tumor cell growth
inhibition of cell growth (BL6 melanoma cells): more effective than DMS and sphingosine; also recorded: BL6 cells were more sensitive to TMS treatment
inhibition of phosphorylation of the 40 kD platelet protein (40 kD platelet protein): inhibits phosphorylation of the 40 kD platelet protein
neutrophil O2 consumption (neutrophils; Example 6): noted effect
inhibition of PMA-dependent enhancement of O2 consumption (neutrophils; PMA, FIG. 14): inhibited strongly
